According to the NIST ThermoML archive (doi:10.1021/acs.jced.9b00511):
Numbers after ± are expanded uncertainties.

Legend:
[1] = wn = mass fraction of the nth substance listed; conditions: Wilhelmy Plate
[2] = Wilhelmy Plate

CCCCn1cc[n+](C)c1.NCCCC[C@H](N)C(=O)[O-] [1-butyl-3-methylimidazolium L-lysinate] + O
surface tension liquid-gas [mN/m], [1]
Conditions | w1 = 0.025 | w1 = 0.05 | w1 = 0.075 | w1 = 0.1 | w1 = 0.15 | w1 = 0.2 | w1 = 0.4 | w1 = 0.6 | w1 = 0.8 | w1 = 1
303.2 K | 62.5 ± 1.1 | 59.9 ± 1.1 | 57.3 ± 0.8 | 55.1 ± 0.7 | 52.5 ± 0.6 | 50.1 ± 0.4 | 48.4 ± 0.4 | 47.1 ± 0.4 | 46.4 ± 0.5 | 45.9 ± 0.6
308.2 K | 59.8 ± 0.9 | 57.7 ± 1 | 55.2 ± 0.9 | 53.3 ± 0.6 | 50.9 ± 0.5 | 49.1 ± 0.4 | 47.6 ± 0.4 | 46.4 ± 0.4 | 45.9 ± 0.5 | 45.5 ± 0.5
313.2 K | 57.3 ± 0.7 | 55.5 ± 0.9 | 53.2 ± 0.9 | 51.5 ± 0.6 | 49.3 ± 0.5 | 48.1 ± 0.3 | 46.8 ± 0.4 | 45.7 ± 0.4 | 45.5 ± 0.5 | 45.1 ± 0.5
318.2 K | 54.3 ± 0.8 | 52.5 ± 0.8 | 50.8 ± 0.7 | 49.4 ± 0.5 | 47.7 ± 0.4 | 46.8 ± 0.3 | 45.9 ± 0.4 | 45.3 ± 0.4 | 45 ± 0.5 | 44.7 ± 0.5
323.2 K | 51.1 ± 0.7 | 49.6 ± 1.4 | 48.5 ± 0.4 | 47.3 ± 0.4 | 46.2 ± 0.4 | 45.5 ± 0.3 | 45.1 ± 0.4 | 44.9 ± 0.4 | 44.6 ± 0.5 | 44.2 ± 0.5

CCCCn1cc[n+](C)c1.NCC(=O)[O-] [1-butyl-3-methylimidazolium glycinate] + O
surface tension liquid-gas [mN/m], [1]
Conditions | w1 = 0.025 | w1 = 0.05 | w1 = 0.075 | w1 = 0.1 | w1 = 0.15 | w1 = 0.2 | w1 = 0.4 | w1 = 0.6 | w1 = 0.8 | w1 = 1
303.2 K | 59.4 ± 1.1 | 56.7 ± 0.6 | 53.6 ± 1.3 | 50.7 ± 0.8 | 48.3 ± 0.6 | 46.8 ± 0.3 | 46 ± 0.4 | 45.5 ± 0.4 | 44.7 ± 0.5 | 42.9 ± 0.5
308.2 K | 56.8 ± 1 | 54.3 ± 1.1 | 51.6 ± 1.1 | 49.2 ± 0.6 | 47.3 ± 0.5 | 45.9 ± 0.3 | 45.3 ± 0.4 | 44.9 ± 0.4 | 44.1 ± 0.5 | 42.6 ± 0.5
313.2 K | 54.1 ± 1 | 51.9 ± 1 | 49.5 ± 0.9 | 47.7 ± 0.5 | 46.2 ± 0.4 | 45 ± 0.3 | 44.6 ± 0.4 | 44.3 ± 0.4 | 43.5 ± 0.5 | 42.4 ± 0.5
318.2 K | 51.5 ± 0.8 | 49.6 ± 0.8 | 47.8 ± 0.7 | 46.4 ± 0.5 | 45.1 ± 0.4 | 44.2 ± 0.3 | 43.8 ± 0.4 | 43.4 ± 0.4 | 42.8 ± 0.5 | 42.1 ± 0.5
323.2 K | 48.9 ± 0.7 | 47.3 ± 2.2 | 46.1 ± 0.4 | 45.1 ± 0.4 | 44 ± 0.4 | 43.4 ± 0.3 | 43 ± 0.4 | 42.6 ± 0.4 | 42.1 ± 0.5 | 41.7 ± 0.5

CCCCn1cc[n+](C)c1.NCC(=O)[O-] [1-butyl-3-methylimidazolium glycinate]
[2]
Conditions | surface tension liquid-gas [mN/m]
303.2 K | 42.9 ± 0.5
308.2 K | 42.6 ± 0.5
313.2 K | 42.4 ± 0.5
318.2 K | 42.1 ± 0.5
323.2 K | 41.7 ± 0.5

CC(O)CN(C)C (stereo not given) [1-(dimethylamino)-2-propanol]
[2]
Conditions | surface tension liquid-gas [mN/m]
303.2 K | 24 ± 0.4
308.2 K | 23.2 ± 0.4
313.2 K | 22.6 ± 0.4
318.2 K | 22 ± 0.4
323.2 K | 21.3 ± 0.4
